# Values of other authors, collected in patent US20150045288A1, “COMPOSITION” (priority 2012, published 2015).
# Like-named read-outs stand apart in the source and are kept apart here.
# Settings: 50% ethanol solution
substance,measurement,setting,value
difficidin,t90 (time at which 90% of the inhibitory substance remains as tested by HPLC),"pH 3.5, room temperature",2 h
same,t90 (time at which 90% of the inhibitory substance remains as tested by HPLC),"pH 11, room temperature",17 h
